{"source": "patent US11793849B2", "about": "“Method of Chinese herbal medicine extract used for treating multiple diseases caused by drug resistant bacteria infection” (priority 2016, dated 2023)", "key": {"ATCC27853": {"system": "ATCC27853", "test": "MIC determination, control strain", "type": "cell-based", "protocol": "Determination methods of a Minimal Inhibitory Concentration (MIC) and a Minimum Bactericidal Concentration (MBC) of a test product: the MIC and the MBC of the Pithecellobium clypearia Benth water or ethanol extract to the MDRAB are determined by a microdilution broth method."}, "MDRAB": {"system": "MDRAB", "test": "MIC determination, microdilution broth method", "type": "cell-based, Acinetobacter baumannii", "details": "Acinetobacter baumannii", "protocol": "Determination methods of a Minimal Inhibitory Concentration (MIC) and a Minimum Bactericidal Concentration (MBC) of a test product: the MIC and the MBC of the Pithecellobium clypearia Benth water or ethanol extract to the MDRAB are determined by a microdilution broth method. And it is operated by referring to the microdilution broth method recommended by National Committee for Clinical Laboratory Standards (NCCLS)."}}, "note": "Like-named read-outs stand apart in the source and are kept apart here.", "data": [{"smiles": "C[C@H]1COc2c(N3CCN(C)CC3)c(F)cc3c(=O)c(C(=O)O)cn1c23", "note": "[LVX, Levofloxacin]", "values": [{"measurement": "MIC", "setting": "ATCC27853; EA=10% ethanol extract, read-out: MIC", "result": 1, "unit": "µg/mL"}, {"measurement": "MIC", "setting": "ATCC27853; EA=60% ethanol extract, read-out: MIC", "result": 1, "unit": "µg/mL"}, {"measurement": "MIC", "setting": "ATCC27853; EA=95% ethanol extract, read-out: MIC", "result": 1, "unit": "µg/mL"}, {"measurement": "MIC", "setting": "ATCC27853; EA=P. clypearia 10% ethanol extract, read-out: MIC (single use)", "result": 1, "unit": "µg/mL"}, {"measurement": "MIC", "setting": "ATCC27853; EA=P. clypearia water extract, read-out: MIC (single use)", "result": 1, "unit": "µg/mL"}, {"measurement": "MIC", "setting": "ATCC27853; EA=water extract, read-out: MIC", "result": 1, "unit": "µg/mL"}, {"measurement": "MIC", "setting": "ATCC27853; single use, EA = 60% ethanol extract, read-out: MIC", "result": 1, "unit": "µg/mL"}, {"measurement": "MIC", "setting": "ATCC27853; single use, EA = 95% ethanol extract, read-out: MIC", "result": 1, "unit": "µg/mL"}, {"measurement": "MIC", "setting": "MDRAB; strain A1, EA=60% ethanol extract, read-out: MIC", "result": 0.5, "unit": "µg/mL"}, {"measurement": "MIC", "setting": "MDRAB; strain A1, EA=95% ethanol extract, read-out: MIC", "result": 0.5, "unit": "µg/mL"}, {"measurement": "MIC", "setting": "MDRAB; strain A1, EA=P. clypearia 95% ethanol extract, read-out: single-use MIC", "result": 0.5, "unit": "µg/mL"}, {"measurement": "MIC", "setting": "MDRAB; strain A1, single use, EA=10% ethanol extract, read-out: MIC", "result": 0.5, "unit": "µg/mL"}, {"measurement": "MIC", "setting": "MDRAB; strain A1, single use, EA=water extract, read-out: MIC", "result": 0.5, "unit": "µg/mL"}, {"measurement": "MIC", "setting": "MDRAB; strain A2, EA=60% ethanol extract, read-out: MIC", "result": 16, "unit": "µg/mL"}, {"measurement": "MIC", "setting": "MDRAB; strain A2, EA=95% ethanol extract, read-out: MIC", "result": 16, "unit": "µg/mL"}, {"measurement": "MIC", "setting": "MDRAB; strain A2, EA=P. clypearia 95% ethanol extract, read-out: single-use MIC", "result": 16, "unit": "µg/mL"}, {"measurement": "MIC", "setting": "MDRAB; strain A2, single use, EA=10% ethanol extract, read-out: MIC", "result": 16, "unit": "µg/mL"}, {"measurement": "MIC", "setting": "MDRAB; strain A2, single use, EA=water extract, read-out: MIC", "result": 16, "unit": "µg/mL"}, {"measurement": "MIC", "setting": "MDRAB; strain A3, EA=60% ethanol extract, read-out: MIC", "result": 4, "unit": "µg/mL"}, {"measurement": "MIC", "setting": "MDRAB; strain A3, EA=95% ethanol extract, read-out: MIC", "result": 4, "unit": "µg/mL"}, {"measurement": "MIC", "setting": "MDRAB; strain A3, EA=P. clypearia 95% ethanol extract, read-out: single-use MIC", "result": 16, "unit": "µg/mL"}, {"measurement": "MIC", "setting": "MDRAB; strain A3, single use, EA=10% ethanol extract, read-out: MIC", "result": 4, "unit": "µg/mL"}, {"measurement": "MIC", "setting": "MDRAB; strain A4, EA=60% ethanol extract, read-out: MIC", "result": 0.5, "unit": "µg/mL"}, {"measurement": "MIC", "setting": "MDRAB; strain A4, EA=95% ethanol extract, read-out: MIC", "result": 0.5, "unit": "µg/mL"}, {"measurement": "MIC", "setting": "MDRAB; strain A4, EA=P. clypearia 95% ethanol extract, read-out: single-use MIC", "result": 0.5, "unit": "µg/mL"}, {"measurement": "MIC", "setting": "MDRAB; strain A4, single use, EA=10% ethanol extract, read-out: MIC", "result": 0.5, "unit": "µg/mL"}, {"measurement": "MIC", "setting": "MDRAB; strain A4, single use, EA=water extract, read-out: MIC", "result": 0.5, "unit": "µg/mL"}, {"measurement": "MIC", "setting": "MDRAB; strain A5, EA=60% ethanol extract, read-out: MIC", "result": 4, "unit": "µg/mL"}, {"measurement": "MIC", "setting": "MDRAB; strain A5, EA=95% ethanol extract, read-out: MIC", "result": 4, "unit": "µg/mL"}, {"measurement": "MIC", "setting": "MDRAB; strain A5, single use, EA=10% ethanol extract, read-out: MIC", "result": 4, "unit": "µg/mL"}, {"measurement": "MIC", "setting": "MDRAB; strain A5, single use, EA=water extract, read-out: MIC", "result": 4, "unit": "µg/mL"}, {"measurement": "MIC", "setting": "MDRAB; strain A6, EA=60% ethanol extract, read-out: MIC", "result": 8, "unit": "µg/mL"}, {"measurement": "MIC", "setting": "MDRAB; strain A6, EA=95% ethanol extract, read-out: MIC", "result": 8, "unit": "µg/mL"}, {"measurement": "MIC", "setting": "MDRAB; strain A6, EA=P. clypearia 95% ethanol extract, read-out: single-use MIC", "result": 8, "unit": "µg/mL"}, {"measurement": "MIC", "setting": "MDRAB; strain A6, single use, EA=10% ethanol extract, read-out: MIC", "result": 8, "unit": "µg/mL"}, {"measurement": "MIC", "setting": "MDRAB; strain A6, single use, EA=water extract, read-out: MIC", "result": 8, "unit": "µg/mL"}, {"measurement": "MIC", "setting": "MDRAB; strain A7, EA=60% ethanol extract, read-out: MIC", "result": 8, "unit": "µg/mL"}, {"measurement": "MIC", "setting": "MDRAB; strain A7, EA=95% ethanol extract, read-out: MIC", "result": 8, "unit": "µg/mL"}, {"measurement": "MIC", "setting": "MDRAB; strain A7, EA=P. clypearia 95% ethanol extract, read-out: single-use MIC", "result": 8, "unit": "µg/mL"}, {"measurement": "MIC", "setting": "MDRAB; strain A7, single use, EA=10% ethanol extract, read-out: MIC", "result": 8, "unit": "µg/mL"}, {"measurement": "MIC", "setting": "MDRAB; strain A7, single use, EA=water extract, read-out: MIC", "result": 8, "unit": "µg/mL"}, {"measurement": "MIC", "setting": "MDRAB; strain A8, EA=60% ethanol extract, read-out: MIC", "result": 4, "unit": "µg/mL"}, {"measurement": "MIC", "setting": "MDRAB; strain A8, EA=95% ethanol extract, read-out: MIC", "result": 4, "unit": "µg/mL"}, {"measurement": "MIC", "setting": "MDRAB; strain A8, EA=P. clypearia 95% ethanol extract, read-out: single-use MIC", "result": 4, "unit": "µg/mL"}, {"measurement": "MIC", "setting": "MDRAB; strain A8, single use, EA=10% ethanol extract, read-out: MIC", "result": 4, "unit": "µg/mL"}, {"measurement": "MIC", "setting": "MDRAB; strain A8, single use, EA=water extract, read-out: MIC", "result": 4, "unit": "µg/mL"}, {"measurement": "MIC", "setting": "MDRAB; strain A9, EA=60% ethanol extract, read-out: MIC", "result": 4, "unit": "µg/mL"}, {"measurement": "MIC", "setting": "MDRAB; strain A9, EA=95% ethanol extract, read-out: MIC", "result": 4, "unit": "µg/mL"}, {"measurement": "MIC", "setting": "MDRAB; strain A9, EA=P. clypearia 95% ethanol extract, read-out: single-use MIC", "result": 4, "unit": "µg/mL"}, {"measurement": "MIC", "setting": "MDRAB; strain A9, single use, EA=10% ethanol extract, read-out: MIC", "result": 4, "unit": "µg/mL"}, {"measurement": "MIC", "setting": "MDRAB; strain A9, single use, EA=water extract, read-out: MIC", "result": 4, "unit": "µg/mL"}, {"measurement": "MIC", "setting": "MDRAB; strain A10, EA=60% ethanol extract, read-out: MIC", "result": 32, "unit": "µg/mL"}, {"measurement": "MIC", "setting": "MDRAB; strain A10, EA=95% ethanol extract, read-out: MIC", "result": 32, "unit": "µg/mL"}, {"measurement": "MIC", "setting": "MDRAB; strain A10, EA=P. clypearia 95% ethanol extract, read-out: single-use MIC", "result": 32, "unit": "µg/mL"}, {"measurement": "MIC", "setting": "MDRAB; strain A10, single use, EA=10% ethanol extract, read-out: MIC", "result": 32, "unit": "µg/mL"}, {"measurement": "MIC", "setting": "MDRAB; strain A10, single use, EA=water extract, read-out: MIC", "result": 32, "unit": "µg/mL"}, {"measurement": "MIC", "setting": "MDRAB; strain A11, EA=60% ethanol extract, read-out: MIC", "result": 4, "unit": "µg/mL"}, {"measurement": "MIC", "setting": "MDRAB; strain A11, EA=95% ethanol extract, read-out: MIC", "result": 4, "unit": "µg/mL"}, {"measurement": "MIC", "setting": "MDRAB; strain A11, EA=P. clypearia 95% ethanol extract, read-out: single-use MIC", "result": 4, "unit": "µg/mL"}, {"measurement": "MIC", "setting": "MDRAB; strain A11, single use, EA=10% ethanol extract, read-out: MIC", "result": 4, "unit": "µg/mL"}, {"measurement": "MIC", "setting": "MDRAB; strain A11, single use, EA=water extract, read-out: MIC", "result": 4, "unit": "µg/mL"}, {"measurement": "MIC", "setting": "MDRAB; strain A12, EA=60% ethanol extract, read-out: MIC", "result": 32, "unit": "µg/mL"}, {"measurement": "MIC", "setting": "MDRAB; strain A12, EA=95% ethanol extract, read-out: MIC", "result": 32, "unit": "µg/mL"}, {"measurement": "MIC", "setting": "MDRAB; strain A12, EA=P. clypearia 95% ethanol extract, read-out: single-use MIC", "result": 32, "unit": "µg/mL"}, {"measurement": "MIC", "setting": "MDRAB; strain A12, single use, EA=10% ethanol extract, read-out: MIC", "result": 32, "unit": "µg/mL"}, {"measurement": "MIC", "setting": "MDRAB; strain A12, single use, EA=water extract, read-out: MIC", "result": 32, "unit": "µg/mL"}, {"measurement": "MIC", "setting": "MDRAB; strain A13, EA=60% ethanol extract, read-out: MIC", "result": 32, "unit": "µg/mL"}, {"measurement": "MIC", "setting": "MDRAB; strain A13, EA=95% ethanol extract, read-out: MIC", "result": 32, "unit": "µg/mL"}, {"measurement": "MIC", "setting": "MDRAB; strain A13, EA=P. clypearia 95% ethanol extract, read-out: single-use MIC", "result": 32, "unit": "µg/mL"}, {"measurement": "MIC", "setting": "MDRAB; strain A13, single use, EA=10% ethanol extract, read-out: MIC", "result": 32, "unit": "µg/mL"}, {"measurement": "MIC", "setting": "MDRAB; strain A13, single use, EA=water extract, read-out: MIC", "result": 32, "unit": "µg/mL"}, {"measurement": "MIC", "setting": "MDRAB; strain A14, EA=60% ethanol extract, read-out: MIC", "result": 16, "unit": "µg/mL"}, {"measurement": "MIC", "setting": "MDRAB; strain A14, EA=95% ethanol extract, read-out: MIC", "result": 16, "unit": "µg/mL"}, {"measurement": "MIC", "setting": "MDRAB; strain A14, EA=P. clypearia 95% ethanol extract, read-out: single-use MIC", "result": 16, "unit": "µg/mL"}, {"measurement": "MIC", "setting": "MDRAB; strain A14, single use, EA=10% ethanol extract, read-out: MIC", "result": 16, "unit": "µg/mL"}, {"measurement": "MIC", "setting": "MDRAB; strain A14, single use, EA=water extract, read-out: MIC", "result": 16, "unit": "µg/mL"}, {"measurement": "MIC", "setting": "MDRAB; strain A15, EA=60% ethanol extract, read-out: MIC", "result": 32, "unit": "µg/mL"}, {"measurement": "MIC", "setting": "MDRAB; strain A15, EA=95% ethanol extract, read-out: MIC", "result": 32, "unit": "µg/mL"}, {"measurement": "MIC", "setting": "MDRAB; strain A15, EA=P. clypearia 95% ethanol extract, read-out: single-use MIC", "result": 32, "unit": "µg/mL"}, {"measurement": "MIC", "setting": "MDRAB; strain A15, single use, EA=10% ethanol extract, read-out: MIC", "result": 32, "unit": "µg/mL"}, {"measurement": "MIC", "setting": "MDRAB; strain A15, single use, EA=water extract, read-out: MIC", "result": 32, "unit": "µg/mL"}, {"measurement": "MIC", "setting": "MDRAB; strain A16, EA=60% ethanol extract, read-out: MIC", "result": 8, "unit": "µg/mL"}, {"measurement": "MIC", "setting": "MDRAB; strain A16, EA=95% ethanol extract, read-out: MIC", "result": 8, "unit": "µg/mL"}]}]}
